Source: the NIST ThermoML archive (doi:10.1021/acs.jced.8b00157)
Where “and” joins values, the source holds several entries; their conditions need not be identical. Equal values may be shown once.

Experiment: an = ratio of the nth substance listed
Settings: 100 kPa, Liquid, Buoyancy - hydrostatic balance, a2 = 1.7

[F][Al]([F])[F] [aluminum fluoride] + [F-].[K+]
Settings	mass density
1188.2 K	1843 kg/m3
1188.4 K	1842 kg/m3
1188.6 K	1842 kg/m3
1189.2 K	1841 kg/m3
1189.7 K	1841 kg/m3
1189.8 K	1841 kg/m3
1190.6 K	1840 kg/m3
1190.7 K	1840 kg/m3
1190.9 K	1840 kg/m3
1191.6 K	1839 kg/m3 and 1840 kg/m3
1191.7 K	1839 kg/m3
1191.8 K	1840 kg/m3
1192.2 K	1839 kg/m3
1192.4 K	1838 kg/m3
1192.7 K	1838 kg/m3
1192.8 K	1838 kg/m3
1193 K	1839 kg/m3
1193.8 K	1837 kg/m3
1194 K	1838 kg/m3
1194.2 K	1837 kg/m3
1194.6 K	1837 kg/m3
1194.9 K	1837 kg/m3
1195.3 K	1836 kg/m3
1195.6 K	1835 kg/m3 and 1837 kg/m3
1195.9 K	1835 kg/m3
1196.1 K	1836 kg/m3
1196.3 K	1835 kg/m3
1196.5 K	1835 kg/m3
1197.1 K	1835 kg/m3
1197.5 K	1834 kg/m3
1197.7 K	1834 kg/m3
1197.8 K	1834 kg/m3 and 1835 kg/m3
1198.1 K	1834 kg/m3
1198.4 K	1833 kg/m3
1198.9 K	1833 kg/m3
1199.6 K	1832 kg/m3
1199.9 K	1833 kg/m3
1200.2 K	1832 kg/m3
1200.5 K	1831 kg/m3
1200.7 K	1832 kg/m3
1200.8 K	1831 kg/m3 and 1832 kg/m3
1201.4 K	1830 kg/m3
1201.7 K	1830 kg/m3 and 1831 kg/m3
1202.1 K	1831 kg/m3
1202.2 K	1832 kg/m3
1202.4 K	1830 kg/m3 and 1831 kg/m3
1202.9 K	1829 kg/m3 and 1831 kg/m3
1203 K	1829 kg/m3
1203.6 K	1829 kg/m3
1203.8 K	1828 kg/m3
1203.9 K	1828 kg/m3
1204 K	1828 kg/m3 and 1829 kg/m3
1204.3 K	1828 kg/m3
1204.6 K	1827 kg/m3
1204.7 K	1827 kg/m3
1205 K	1826 kg/m3
1205.6 K	1826 kg/m3
1205.8 K	1826 kg/m3
1206 K	1827 kg/m3
1206.3 K	1826 kg/m3
1206.6 K	1826 kg/m3
1206.7 K	1825 kg/m3
1207 K	1826 kg/m3
1207.1 K	1825 kg/m3
1207.3 K	1824 kg/m3
1207.5 K	1825 kg/m3
1207.6 K	1824 kg/m3
1207.8 K	1824 kg/m3
1207.9 K	1825 kg/m3
1208.2 K	1824 kg/m3
1208.4 K	1823 kg/m3
1208.5 K	1823 kg/m3
1208.7 K	1822 kg/m3
1209.3 K	1823 kg/m3
1209.7 K	1823 kg/m3
1209.8 K	1823 kg/m3
1210.1 K	1821 kg/m3
1210.2 K	1822 kg/m3
1210.5 K	1821 kg/m3
1211 K	1822 kg/m3
1211.2 K	1822 kg/m3
1211.3 K	1822 kg/m3
1211.4 K	1821 kg/m3
1211.7 K	1821 kg/m3 and 1820 kg/m3
1211.8 K	1822 kg/m3
1211.9 K	1821 kg/m3 and 1819 kg/m3
1212.3 K	1820 kg/m3 and 1819 kg/m3
1212.6 K	1819 kg/m3
1212.9 K	1820 kg/m3
1213.1 K	1820 kg/m3
1213.3 K	1820 kg/m3
1213.5 K	1819 kg/m3
1213.7 K	1820 kg/m3
1213.8 K	1819 kg/m3
1214 K	1819 kg/m3 and 1818 kg/m3
1214.2 K	1817 kg/m3
1214.6 K	1819 kg/m3
1214.7 K	1819 kg/m3
1215.1 K	1819 kg/m3
1215.2 K	1819 kg/m3 and 1816 kg/m3
1215.5 K	1818 kg/m3
1215.6 K	1816 kg/m3
1216 K	1815 kg/m3
1216.7 K	1814 kg/m3
1217 K	1814 kg/m3
1217.5 K	1813 kg/m3
1218.2 K	1813 kg/m3
1218.7 K	1812 kg/m3
1219.2 K	1811 kg/m3 and 1812 kg/m3
1220.3 K	1810 kg/m3
1220.6 K	1809 kg/m3
1220.9 K	1810 kg/m3
1221.8 K	1809 kg/m3
1222.2 K	1808 kg/m3
1222.3 K	1808 kg/m3
1222.7 K	1807 kg/m3
1223.3 K	1807 kg/m3
1223.7 K	1805 kg/m3
1223.8 K	1806 kg/m3
